Patent US20100093648A1, “TREATMENT OF MACULAR DEGENERATION-RELATED DISORDERS” (priority 2008, published 2010)

Test system: APOE4 HF-C mice
Experiment: Electroretinogram (ERG) in aged APOE4 mice on high fat/cholesterol diet (murine AMD model)
Assay type: in vivo, mouse
Details: aged male APOE4 mice, high cholesterol diet 8 weeks, scyllo-inositol 10 mg/ml in drinking water ad libitum
Source text: The ocular pathologies of AMD may be recapitulated in a murine model by applying three physiologically relevant risk factors: specific APOE genotype (APOE4), advanced age and high fat/cholesterol-rich (HF-C) diet. These mice develop sub-retinal pigment epithelium (RPE) deposits (basal deposits), RPE atrophy and choroidal neovascularization in a temporal, non-fully penetrant manner that is analogous to human AMD progression [Malek, G., et al., (2005), Proc Natl Acad Sci USA 102, 11900-5]. An electrophysiological phenotype is associated with this pathology. […] The ability of scyllo-inositol (AZD-103/ELN005) to prevent retina/RPE damage, the buildup of basal deposits and attenuation of the ERG was evaluated.
Aged male APOE4 mice housed conventionally, under ambient conditions maintained on water ad libitum and normal mouse chow (normal diet or ND), were assigned to three treatment groups. This assignment was random, although the ages of the animals were balanced across the groups. One group was maintained on the normal diet. The second group was switched to a high fat cholesterol (HFC) diet (35% fat, 20% protein, 45% carbohydrates, 1.25% cholesterol, 0.5% sodium cholate) for 8 weeks. The third group received scyllo-inositol (AZD-103/ELN005) ad libitum (dissolved in drinking water at 10 mg/ml) for 7 days. They were then switched to the HF-C diet for 8 weeks, during which time they continued to receive scyllo-inositol (AZD-103/ELN005) ad libitum. […] ERG tracings were recorded using a platinum iridium wire loop electrode placed in contact with the eye along with a drop of 2.5% hydroxypropyl methylcellulose. […] The a-wave amplitude was measured from baseline to the a-wave trough, and the b-wave amplitude was measured from the a-wave trough to the b-wave peak. • 4. […] Quantitation of photoreceptors. […] The thickness of outer nuclear layer and the linear density of photoreceptor will be calculated. […]
After 8 weeks, animals were assessed by electroretinogram. […] The electrophysiological response to these flashes was recorded by an electrode touching the surface of the eye. […]

Substance: scyllo-inositol [scyllo-inositol (AZD-103/ELN005)]
- a-wave amplitude (ERG): consistent
- retinal function as demonstrated by ERGs: prevented the retinal defect that was caused by high cholesterol diet
- scotopic b-wave amplitude (ERG) (all flash intensities, compared with normal diet controls): virtually indistinguishable from the normal diet control animals
